Reference: patent US8119569B2, “Benzoylpyrazole compounds, process for their production and herbicides containing them” (Ishihara Sangyo Kaisha, Ltd., priority 2006, dated 2012)

Columns and labels:
Type in all cases: in vivo
[1] = tested on: velvetleaf (Abutilon theophrasti MEDIC.); assay: Test Example 1: foliar treatment, upland pot; settings: 7 g/ha, 21st day after application
Excerpt: Upland field soil was put into a 1/170,000 hectare pot, and seeds of various plants were sown. […] The spray solutions thus prepared were applied for foliar treatment by a small sprayer.

[2] = tested on: barnyardgrass (Echinochloa crus-galli L.); assay: Test Example 1: foliar treatment, upland pot; settings: 7 g/ha, 21st day after application
Excerpt: (§1) Upland field soil was put into a 1/170,000 hectare pot, and seeds of various plants were sown. When the respective plants reached predetermined leaf stage ((1) barnyardgrass (Echinochloa crus-galli L.): 1.0 to 3.3 leaf stage, (2) crabgrass (Digitaria sanguinalis L.): 1.2 to 3.0 leaf stage, (3) green foxtail (Setaria viridis L.): 1.5 to 3.3 leaf stage, (4) redroot pigweed (Amaranthus retroflexus L.): 0.1 to 2.0 leaf stage, (5) prickly sida (Sida spinosa L.): cotyledon stage to 2.0 leaf stage, (6) velvetleaf (Abutilon theophrasti MEDIC.): 0.1 to 2.0 leaf stage, (7) rice (Oryza sativa L.): 1.3 to 3.0 leaf stage, (8) corn (Zea mays L.): 2.5 to 3.4 leaf stage, and (9) soybean (Glycine max Merr.): primary leaf stage to 0.3 leaf stage), wettable powders or emulsifiable concentrates of the compounds of the present invention prepared in accordance with a conventional preparation method, were weighed so that the active ingredients became the prescribed amounts, and diluted with water in an amount corresponding to 500 liter per 1 hectare (containing 0.1 vol % of an agricultural spreader (“KUSARINOH”, manufactured by NIHON NOHYAKU CO., LTD.)). The spray solutions thus prepared were applied for foliar treatment by a small sprayer.

[3] = tested on: corn (Zea mays L.); assay: Test Example 1: foliar treatment, upland pot; settings: 7 g/ha, 21st day after application, crop
Excerpt: as §1

[4] = tested on: crabgrass (Digitaria sanguinalis L.); assay: Test Example 1: foliar treatment, upland pot; settings: 7 g/ha, 21st day after application
Excerpt: as §1

[5] = tested on: green foxtail (Setaria viridis L.); assay: Test Example 1: foliar treatment, upland pot; settings: 7 g/ha, 21st day after application
Excerpt: as §1

[6] = tested on: prickly sida (Sida spinosa L.); assay: Test Example 1: foliar treatment, upland pot; settings: 7 g/ha, 21st day after application
Excerpt: as §1

[7] = tested on: redroot pigweed (Amaranthus retroflexus L.); assay: Test Example 1: foliar treatment, upland pot; settings: 7 g/ha, 21st day after application
Excerpt: as §1

[8] = tested on: rice (Oryza sativa L.); assay: Test Example 1: foliar treatment, upland pot; settings: 7 g/ha, 21st day after application, crop
Excerpt: as §1

[9] = tested on: soybean (Glycine max Merr.); assay: Test Example 1: foliar treatment, upland pot; settings: 7 g/ha, 21st day after application, crop
Excerpt: as §1

[10] = tested on: barnyardgrass (Echinochloa crus-galli L.); assay: Test Example 2: soil application on the day after sowing; settings: 250 g/ha, 19th to 22nd day after application
Excerpt: (§2) Upland field soil was put into a 1/170,000 hectare pot, and seeds of various plants (barnyardgrass (Echinochloa crus-galli L.), crabgrass (Digitaria sanguinalis L.), green foxtail (Setaria viridis L.), redroot pigweed (Amaranthus retroflexus L.), prickly sida (Sida spinosa L.), velvetleaf (Abutilon theophrasti MEDIC.), rice (oryza sativa L.), corn (Zea mays L.) and soybean (Glycine max Merr.)) were sown. On the day after sowing, wettable powders or emulsifiable concentrates of the compounds of the present invention prepared in accordance with a conventional preparation method, were weighed so that the active ingredients became the prescribed amounts, and diluted with water in an amount corresponding to 500 liter per 1 hectare, followed by soil application with a small sprayer.

[11] = tested on: corn (Zea mays L.); assay: as above; settings: 250 g/ha, 19th to 22nd day after application, crop
Excerpt: as §2

[12] = tested on: crabgrass (Digitaria sanguinalis L.); assay: as above; settings: 250 g/ha, 19th to 22nd day after application
Excerpt: as §2

[13] = tested on: green foxtail (Setaria viridis L.); assay: as above; settings: 250 g/ha, 19th to 22nd day after application
Excerpt: as §2

[14] = tested on: prickly sida (Sida spinosa L.); assay: as above; settings: 250 g/ha, 19th to 22nd day after application
Excerpt: as §2

[15] = tested on: redroot pigweed (Amaranthus retroflexus L.); assay: as above; settings: 250 g/ha, 19th to 22nd day after application
Excerpt: as §2

[16] = tested on: rice (Oryza sativa L.); assay: as above; settings: 250 g/ha, 19th to 22nd day after application, crop
Excerpt: as §2

[17] = tested on: soybean (Glycine max Merr.); assay: as above; settings: 250 g/ha, 19th to 22nd day after application, crop
Excerpt: as §2

[18] = tested on: velvetleaf (Abutilon theophrasti MEDIC.); assay: as above; settings: 250 g/ha, 19th to 22nd day after application
Excerpt: as §2

[19] = tested on: Japanese bulrush (Scirpus juncoides); assay: Test Example 4: paddy field pot, water application; settings: 63 g/ha, 14th day after application
Excerpt: (§3) Paddy field soil was put into a 1/1,000,000 hectare pot, and seeds of barnyardgrass (Echinochloa oryzicola vasing.) and Japanese bulrush (Scirpus juncoides) were sown and lightly covered with soil. Then, pot was left to stand in a greenhouse in a state irrigated to a water depth of from 0.5 to 1 cm, and next day or two days later, tubers of Japanese ribbon waparo (Sagittaria pygmaea) were planted. Then, the irrigated water depth was maintained to be from 3 to 4 cm, and when barnyardgrass and Japanese bulrush reached 0.5 leaf stage, and Japanese ribbon waparo reached primary leaf stage, a water diluted solution of a wettable powder or an emulsifieable concentrate of the compound of the present invention prepared in accordance with a conventional preparation method, was uniformly dropwise applied by a pipette so that the amount of active ingredients would be a prescribed amount. Further, paddy field soil was put into a 1/1,000,000 pot, followed by soil puddling to an irrigated water depth of from 3 to 4 cm. Next day, rice (Oryza sativa L.) (var.: Nihonbare) of two leaf stage was transplanted in a transplantation depth of 3 cm. On the 4th day after transplantation, the compound of the present invention was applied in the same manner as described above.

[20] = tested on: Japanese ribbon waparo (Sagittaria pygmaea); assay: Test Example 4: paddy field pot, water application; settings: 63 g/ha, 14th day after application
Excerpt: as §3

[21] = tested on: barnyardgrass (Echinochloa oryzicola vasing.); assay: Test Example 4: paddy field pot, water application; settings: 63 g/ha, 14th day after application
Excerpt: as §3

[22] = tested on: rice (Oryza sativa L.) (var.: Nihonbare); assay: Test Example 4: paddy field pot, water application, transplanted rice; settings: 63 g/ha, 21st day after application, crop
Excerpt: as §3

[23] = tested on: green foxtail (Setaria viridis L.); assay: Test Example 3: foliar treatment, comparison with reference compounds; settings: Setaria viridis, 17th day after application, 4.0 to 4.5 leaf stage, read-out: Growth inhibition rate (%) (17th day after application) Green foxtail
Excerpt: (§4) Upland field soil was put into a 1/1,000,000 hectare pot, and seeds of various plants were sown. […] The spray solutions thus prepared were applied for foliar treatment by a small sprayer.

[24] = tested on: guineagrass (Panicum maximum Jacq.); assay: as above; settings: Megathyrsus maximus, 18th day after application, 3.5 to 4.3 leaf stage, read-out: Growth inhibition rate (%) (18th day after application) Guineagrass
Excerpt: as §4

[25] = tested on: velvetleaf (Abutilon theophrasti MEDIC.); assay: as above; settings: Abutilon theophrasti, 22nd day after application, 3.3 to 4.3 leaf stage, read-out: Growth inhibition rate (%) (22nd day after application) Velvet leaf
Excerpt: as §4

[26] = tested on: corn (Zea mays L.); assay: as above; settings: Zea mays, 21st day after application, 4.0 to 4.3 leaf stage, crop, read-out: Growth inhibition rate (%) (21st day after application) Corn
Excerpt: as §4

| Compound | Growth inhibition rate (%) Velvetleaf [1] [%] | Growth inhibition rate (%) Barnyardgrass [2] [%] | Growth inhibition rate (%) Corn [3] [%] | Growth inhibition rate (%) Crabgrass [4] [%] | Growth inhibition rate (%) Green foxtail [5] [%] | Growth inhibition rate (%) Prickly sida [6] [%] | Growth inhibition rate (%) Redroot pigweed [7] [%] | Growth inhibition rate (%) Rice [8] [%] | Growth inhibition rate (%) Soybean [9] [%] | Growth inhibition rate (%) Barnyardgrass [10] [%] | Growth inhibition rate (%) Corn [11] [%] | Growth inhibition rate (%) Crabgrass [12] [%] | Growth inhibition rate (%) Green foxtail [13] [%] | Growth inhibition rate (%) Prickly sida [14] [%] | Growth inhibition rate (%) Redroot pigweed [15] [%] | Growth inhibition rate (%) Rice [16] [%] | Growth inhibition rate (%) Soybean [17] [%] | Growth inhibition rate (%) Velvetleaf [18] [%] | Growth inhibition rate (%) Japanese bulrush [19] [%] | Growth inhibition rate (%) Japanese ribbon waparo [20] [%] | also measured |
| --- | --- | --- | --- | --- | --- | --- | --- | --- | --- | --- | --- | --- | --- | --- | --- | --- | --- | --- | --- | --- | --- |
| CCOC(=O)OC(C)Oc1c(C(=O)c2ccc(S(C)(=O)=O)c(COC)c2C)cnn1C (racemic) [compound 7] | 98 | 95 | 0 | 90 | 90 | 80 | 85 | 70 | 95 | 100 | 0 | 90 | 40 | 80 | 80 | 90 | 0 | 70 | 70 | 60 | Growth inhibition rate (%) Barnyardgrass [21]: 100%; Growth inhibition rate (%) Rice [22]: 70% |
| CCOC(=O)OC(C)Oc1c(C(=O)c2ccc(S(C)(=O)=O)c(OCCOC)c2C)c(C)nn1C (racemic) [compound 11] | 60 | 90 | 0 | 90 | 90 | 10 | 80 | 80 | 70 | 100 | 0 | 100 | 100 | 40 | 100 | 100 | 20 | 70 | 100 | 60 | Growth inhibition rate (%) Barnyardgrass [21]: 98%; Growth inhibition rate (%) Rice [22]: 60% |
| CCCOC(=O)OC(C)Oc1c(C(=O)c2ccc(S(C)(=O)=O)c(OCCOC)c2C)cnn1C (racemic) [compound 19] | 95 | 95 | 0 | 90 | 100 | 30 | 95 | 80 | 80 | 100 | 0 | 100 | 100 | 60 | 100 | 100 | 40 | 98 | 95 | 95 | Growth inhibition rate (%) Barnyardgrass [21]: 100%; Growth inhibition rate (%) Rice [22]: 20% |
| CCn1ncc(C(=O)c2ccc(S(C)(=O)=O)c(OCCOC)c2Cl)c1O [Reference Compound 1] | – | – | – | – | – | – | – | – | – | – | – | – | – | – | – | – | – | – | – | – | inhibition at 3.5 g/ha [23]: 35%; inhibition at 7 g/ha [23]: 55%; inhibition at 3.5 g/ha [24]: 0%; inhibition at 15 g/ha [25]: 20% |
| COCCOc1c(S(C)(=O)=O)ccc(C(=O)c2cnn(C(C)C)c2O)c1Cl [Reference Compound 2] | – | – | – | – | – | – | – | – | – | – | – | – | – | – | – | – | – | – | – | – | inhibition at 120 g/ha [26]: 28%; inhibition at 3.5 g/ha [23]: 30%; inhibition at 7 g/ha [23]: 45%; inhibition at 3.5 g/ha [24]: 0%; inhibition at 15 g/ha [25]: 40% |
